Reference: patent publication US20070027150A1 (priority 2005, published 2007)

Target: His-tagged N-terminal ATP binding domain (amino acid residues 9-236) of HSP90α (Homo sapiens, UniProt P07900)
Test: HSP90 inhibitor binding potency: TRF competition binding assay
Settings: Table II; read-out: Hsp90 IC50 Range
Summary of the method: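 Competition against biotinylated radicicol for binding to the His-tagged 9-236 ATP domain of HSP90α: 2 h, room temperature, HEPES/MgCl2/KCl/BSA buffer. Streptavidin capture, then europium-labeled anti-His antibody and enhancement solution; europium counts give IC50.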

Row | Structure (SMILES) | IC50 [nM]
1 | Cc1nc(N)nc2c1C(=O)CC(c1ccccc1S(=O)(=O)N(C)C(C)C)C2 (stereo not shown) [Compound 185, 2-(2-amino-4-methyl-5-oxo-5,6,7,8-tetrahydro-quinazolin-7-yl)-N-isopropyl-N-methyl-benzenesulfonamide] | 1000 to 10000
2 | COc1cccc(-n2ccnc2C2CC(=O)c3c(C)nc(N)nc3C2)c1 (stereo not shown) [Compound 190, 2-amino-7-[1-(3-methoxy-phenyl)-1H-imidazol-2-yl]-4-methyl-7,8-dihydro-6H-quinazolin-5-one] | 1000 to 10000
3 | CCOc1cccc(-n2ccnc2C2CC(=O)c3c(C)nc(N)nc3C2)c1 (stereo not shown) [Compound 191, 2-amino-7-[1-(3-ethoxy-phenyl)-1H-imidazol-2-yl]-4-methyl-7,8-dihydro-6H-quinazolin-5-one] | > 10000
4 | COc1ccc(F)c(-n2ccnc2C2CC(=O)c3c(C)nc(N)nc3C2)c1 (stereo not shown) [Compound 196, 2-amino-7-[1-(2-fluoro-5-methoxy-phenyl)-1H-imidazol-2-yl]-4-methyl-7,8-dihydro-6H-quinazolin-5-one] | 1000 to 10000
5 | Cc1nc(N)nc2c1C(=O)CC(c1nccn1-c1cccc(OC(F)(F)F)c1)C2 (stereo not shown) [Compound 198, 2-amino-4-methyl-7-[1-(3-trifluoromethoxy-phenyl)-1H-imidazol-2-yl]-7,8-dihydro-6H-quinazolin-5-one] | > 10000
6 | COc1ccc(C(F)(F)F)cc1-n1ccnc1C1CC(=O)c2c(C)nc(N)nc2C1 (stereo not shown) [Compound 199, 2-amino-7-[1-(2-methoxy-5-trifluoromethyl-phenyl)-1H-imidazol-2-yl]-4-methyl-7,8-dihydro-6H-quinazolin-5-one] | 1000 to 10000
7 | CCc1cccc(-n2ccnc2C2CC(=O)c3c(C)nc(N)nc3C2)n1 (stereo not shown) [Compound 201, 2-amino-7-[1-(6-ethyl-pyridin-2-yl)-1H-imidazol-2-yl]-4-methyl-7,8-dihydro-6H-quinazolin-5-one] | 1000 to 10000
8 | COc1cccc(-n2ccnc2[C@H]2CC(=O)c3c(C)nc(N)nc3C2)n1 [Compound 203, (R)-2-amino-7-[1-(6-methoxy-pyridin-2-yl)-1H-imidazol-2-yl]-4-methyl-7,8-dihydro-6H-quinazolin-5-one] | 1000 to 10000
9 | COc1nc(-n2ccnc2[C@H]2CC(=O)c3c(C)nc(N)nc3C2)ncc1C [Compound 207, (R)-2-amino-7-[1-(4-methoxy-5-methyl-pyrimidin-2-yl)-1H-imidazol-2-yl]-4-methyl-7,8-dihydro-6H-quinazolin-5-one] | > 10000
10 | Cc1nc(N)nc2c1C(=O)CC(c1nccn1Cc1ccccn1)C2 (stereo not shown) [Compound 209, 2-amino-4-methyl-7-(1-pyridin-2-ylmethyl-1H-imidazol-2-yl)-7,8-dihydro-6H-quinazolin-5-one] | > 10000
11 | CCc1nc(N)nc2c1C(=O)CC(c1ccccc1)C2 (stereo not shown) [Compound 210, 2-amino-4-ethyl-7-phenyl-7,8-dihydro-6H-quinazolin-5-one] | > 10000

More lines, now with the values ahead:

Row | IC50 [nM] | Structure (SMILES)
12 | < 1000 | CCc1cccc(-c2cc(F)ccc2C2CC(=O)c3c(C)nc(N)nc3C2)n1 (stereo not shown) [Compound 183, 2-amino-7-[2-(6-ethyl-pyridin-2-yl)-4-fluoro-phenyl]-4-methyl-7,8-dihydro-6H-quinazolin-5-one]
13 | 1000 to 10000 | Cc1nc(N)nc2c1C(=O)CC(c1ccccc1S(=O)(=O)N1CCCC1)C2 (stereo not shown) [Compound 184, 2-amino-4-methyl-7-[2-(pyrrolidine-1-sulfonyl)-phenyl]-7,8-dihydro-6H-quinazolin-5-one]
14 | < 1000 | COc1ccc(F)c(-c2cc(F)ccc2C2CC(=O)c3c(C)nc(N)nc3C2)c1 (stereo not shown) [Compound 186, 2-amino-7-(5,2′-difluoro-5′-methoxy-biphenyl-2-yl)-4-methyl-7,8-dihydro-6H-quinazolin-5-one]
15 | < 1000 | Cc1nc(N)nc2c1C(=O)CC(c1cnccc1-c1cccc(Br)c1)C2 (stereo not shown) [Compound 187, 2-amino-7-[4-(3-bromo-phenyl)-pyridin-3-yl]-4-methyl-7,8-dihydro-6H-quinazolin-5-one]
16 | < 1000 | Cc1nc(N)nc2c1C(=O)CC(c1nccn1-c1ccccc1F)C2 (stereo not shown) [Compound 188, 2-amino-7-[1-(2-fluoro-phenyl)-1H-imidazol-2-yl]-4-methyl-7,8-dihydro-6H-quinazolin-5-one]
17 | < 1000 | Cc1nc(N)nc2c1C(=O)CC(c1nccn1C1CCCC1)C2 (stereo not shown) [Compound 189, 2-amino-7-(1-cyclopentyl-1H-imidazol-2-yl)-4-methyl-7,8-dihydro-6H-quinazolin-5-one]
18 | < 1000 | C#CCCOc1cc(F)ccc1C1CC(=O)c2c(C)nc(N)nc2C1 (stereo not shown) [Compound 192, 2-amino-7-(2-but-3-ynyloxy-4-fluoro-phenyl)-4-methyl-7,8-dihydro-6H-quinazolin-5-one]
19 | < 1000 | COc1cccc(-n2ccnc2C2CC(=O)c3c(C)nc(N)nc3C2)n1 (stereo not shown) [Compound 193, 2-amino-7-[1-(6-methoxy-pyridin-2-yl)-1H-imidazol-2-yl]-4-methyl-7,8-dihydro-6H-quinazolin-5-one]
20 | < 1000 | COc1ccccc1-n1ccnc1C1CC(=O)c2c(C)nc(N)nc2C1 (stereo not shown) [Compound 194, 2-amino-7-[1-(2-methoxy-phenyl)-1H-imidazol-2-yl]-4-methyl-7,8-dihydro-6H-quinazolin-5-one]
21 | < 1000 | CCc1ccccc1-n1ccnc1C1CC(=O)c2c(C)nc(N)nc2C1 (stereo not shown) [Compound 195, 2-amino-7-[1-(2-ethyl-phenyl)-1H-imidazol-2-yl]-4-methyl-7,8-dihydro-6H-quinazolin-5-one]
22 | < 1000 | C#Cc1cccc(-n2ccnc2C2CC(=O)c3c(C)nc(N)nc3C2)c1 (stereo not shown) [Compound 197, 2-amino-7-[1-(3-ethynyl-phenyl)-1H-imidazol-2-yl]-4-methyl-7,8-dihydro-6H-quinazolin-5-one]
23 | < 1000 | CCc1c[nH]nc1-n1ccnc1C1CC(=O)c2c(C)nc(N)nc2C1 (stereo not shown) [Compound 200, 2-amino-7-[1-(4-ethyl-1H-pyrazol-3-yl)-1H-imidazol-2-yl]-4-methyl-7,8-dihydro-6H-quinazolin-5-one]
24 | < 1000 | COc1ncccc1-n1ccnc1C1CC(=O)c2c(C)nc(N)nc2C1 (stereo not shown) [Compound 202, 2-amino-7-[1-(2-methoxy-pyridin-3-yl)-1H-imidazol-2-yl]-4-methyl-7,8-dihydro-6H-quinazolin-5-one]
25 | < 1000 | COc1cccc(-n2ccnc2[C@@H]2CC(=O)c3c(C)nc(N)nc3C2)n1 [Compound 204, (S)-2-amino-7-[1-(6-methoxy-pyridin-2-yl)-1H-imidazol-2-yl]-4-methyl-7,8-dihydro-6H-quinazolin-5-one]
26 | < 1000 | COc1cccc(-n2cc(C(F)(F)F)nc2C2CC(=O)c3c(C)nc(N)nc3C2)n1 (stereo not shown) [Compound 205, 2-amino-7-[1-(6-methoxy-pyridin-2-yl)-4-trifluoromethyl-1H-imidazol-2-yl]-4-methyl-7,8-dihydro-6H-quinazolin-5-one]
27 | < 1000 | COc1nc(-n2ccnc2C2CC(=O)c3c(C)nc(N)nc3C2)ncc1C (stereo not shown) [Compound 206, 2-amino-7-[1-(4-methoxy-5-methyl-pyrimidin-2-yl)-1H-imidazol-2-yl]-4-methyl-7,8-dihydro-6H-quinazolin-5-one]
28 | < 1000 | COc1nc(-n2ccnc2[C@@H]2CC(=O)c3c(C)nc(N)nc3C2)ncc1C [Compound 208, (S)-2-amino-7-[1-(4-methoxy-5-methyl-pyrimidin-2-yl)-1H-imidazol-2-yl]-4-methyl-7,8-dihydro-6H-quinazolin-5-one]
